# Earlier results as cited in US20230355939A1, “DEVICES AND METHODS FOR CONTINUOUS EXTRUSION OF A DRUG INTO THE MOUTH” (SynAgile Corporation, priority 2020, published 2023).
# Tests used:
# [1] = for Approximate Pressure (vapor pressure): at 37° C.
structure (smiles),measurement,setting,value
CC(C)F [2-fluoropropane],Approximate Pressure (vapor pressure),[1],~5 bars
"FC(C(F)(F)F)C(F)(F)F [1,1,1,2,3,3,3-hepta-fluoropropane]",Approximate Pressure (vapor pressure),[1],~6.4 bars
"FC(F)(F)CC(F)(F)F [1,1,1,3,3,3 hexafluoropropane]",Approximate Pressure (vapor pressure),[1],~4.0 bars
CCCF [1-fluoropropane],Approximate Pressure (vapor pressure),[1],~4.1 bars
C=CC [propene],Approximate Pressure (vapor pressure),[1],~15.5 bars
CC=CC [2-butene],Approximate Pressure (vapor pressure),[1],~3.2 bars
"FCC(F)(F)F [1,1,1,2-tetrafluoroethane]",Approximate Pressure (vapor pressure),[1],~9.3 bars
same,vapor pressure,[1]; at about 23 ± 3° C.,about 5 bars
CC(C)(C)C [neopentane],Approximate Pressure (vapor pressure),[1],~2.4 bars
"FCCF [1,2-difluoroethane]",Approximate Pressure (vapor pressure),[1],~1.9 bars
CCOC [methyl ethyl ether],Approximate Pressure (vapor pressure),[1],~3 bars
CCC(C)C [isopentane],Approximate Pressure (vapor pressure),[1],~1.4 bars
CCCCF [1-fluorobutane],Approximate Pressure (vapor pressure),[1],~1.3 bars
FC1(F)C(F)(F)C(F)(F)C1(F)F [octafluorocyclobutane],Approximate Pressure (vapor pressure),[1],~4.3 bars
CCC [propane],Approximate Pressure (vapor pressure),[1],~12.8 bars
CCCC [butane],Approximate Pressure (vapor pressure),[1],~3.5 bars
CCOCC [diethyl ether],Approximate Pressure (vapor pressure),[1],~1.1 bars
"N[C@@H](Cc1ccc(O)c(O)c1)C(=O)O [LD, levodopa]",solubility,,about 50 mg/mL
